Measured values reported in patent publication US12186365B2, “Composition for regulating cell division comprising FCHO1 modulator, and method for regulating cell division using same” (SEOUL NATIONAL UNIVERSITY R&DB FOUNDATION, priority 2015, dated 2025).
Marks after values point to notes of the source that are not given here. Ends that are not written are not given here. Peptide text beside a SMILES is read from it. * marks the point of attachment. Cbz = O=C(OCc1ccccc1)*

Legend:
cells [1] = assay: Real-time cell growth measurement using Xcelligence; type: cell-based; conditions: peptides treated in 10 μM, FIG. 30
Description: Cell viability was measured using Xcelligence for in real time observation, and the peptides were treated in 10 μM. […] The results are illustrated in FIG. 30.

FCHo1 cleavage = assay: Immunoblot of FCHo1 cleavage in A549 cell extract with or without MG132; type: cell-based, human; conditions: 1 μM MG132, 16 hours, A549 cells
Description: The cells were dissolved in IP dissolution buffer for 30 min at 4° C. After centrifugation at 17,000×g for 30 minutes, the concentration of the protein was measured, and the same amount of lysate was used for immunoprecipitation. The immunoprecipitation was carried out overnight at 4° C. using anti-FLAG M^2 affinity gel (Sigma-Aldrich). The precipitate was washed three times with washing solution, and the precipitated proteins were separated using SDS-PAGE. Western blotting was carried out using anti-rabbit antibodies conjugated with specific antibodies and secondary anti-mouse IgG Veriblot or horseradish peroxidase. The results were visualized using a chemiluminescence detector (Atto Ez-Capture MG).
To test the potential involvement of specific proteases to cleave FCHo1, the cells were treated with 1 μM MG132, a protease inhibitor for 16 hours. Immunoblotting of the A549 cell extract was performed in the presence or absence of the MG132 protease inhibitor, and the results are illustrated in FIG. 5.

cells [2] = assay: Intracellular uptake of biotin-conjugated peptides (streptavidin-488, CLSM); type: cell-based; conditions: biotin-conjugated peptide, no carrier or CPP, FIG. 29
Description: Biotin-conjugated peptides were treated to cells and fixed on the cells, followed by reaction with streptavidin-488 fluorescent dye, followed by observation with CLSM. The results are illustrated in FIG. 29.

Akt1 = target: T1, Akt1 (Homo sapiens, UniProt P31749); assay: In vitro binding of biotin-conjugated FCHo1-derived peptides to Akt1 (streptavidin plate, cell lysates, Akt1 antibody); conditions: biotin-conjugated peptide on streptavidin plate, FIG. 28
T1 construct: After treating with the cell lysates; endogenous in cells
Source text: To confirm the binding affinity between Akt1 and Akt1 motif-containing FCHo1 amino acid sequence-derived peptides, biotin was conjugated to peptides to complete the synthetization. The peptides were reacted and attached to on the streptavidin-attached plate. After treating with the cell lysates, the binding affinity of the peptide and Akt1 was confirmed by the Akt1 antibody. The experiment process and its result of confirming in vitro binding affinity of Akt1 according to respective peptides derived from FCHo1 binding sites are illustrated in FIG. 28.

[3] = system: lung cancer model mouse (K-ras); assay: Anticancer effect of aerosol-delivered lentiviral FCHo1 vectors in lung cancer model mouse; type: in vivo; conditions: K-ras female mice, lentiviral vector inhaled 8 times for 4 weeks, H&E slides, 5 mice per group
Description: Lentiviral vectors were prepared for the full-length, mutation type and deletion type of FCHo1 and transferred to lung cancer model mouse in a non-invasive aerosol method. Then their anticancer effects were confirmed. Example 8 confirmed that the sites involved in FCHo1 cleavage in human cells were FCHo1^S570A and FCHo1^del563-564. Therefore, corresponding positions were confirmed in mouse FCHo1. It was confirmed that S570A corresponded to S554A and del563-564 corresponded to del544-545. […] Then, the anticancer effects thereof were compared. The results are illustrated in FIG. 25.
(§1) H&E slides were prepared to confirm whether adenoma and hyperplasia were reduced. The shFCHo1 was used for FCHo1 cleavage inhibition. The sequence thereof is represented in SEQ ID NOs: 1 to 4 based on FIG. 26. […] Therefore, this was used to perform this experiment.

mouse FCHo1 = assay: FCHo1 inhibitory effect of shRNA sequences acting on mouse FCHo1; conditions: among four shRNA sequences, SEQ ID NOs: 1 to 4
Description: as §1

A549 cells = assay: Midbody formation in A549 cells expressing FCHo1 constructs (CLSM, MKLP1 staining); type: cell-based, human; conditions: A549 cells in mitosis, compared with wild-type FCHo1
Description: A549 cells were placed in 8-well chamber cover glasses or high-precision cover glasses and were fixed with 3% paraformaldehyde for 10 minutes at room temperature, permeabilized with 0.5% TRITON® X-100 (Sigma-Aldrich) for 5 min, blocked for 30 minutes. Then, the cells were incubated with primary or secondary antibodies in blocking solution (PBS with 0.1% saponin and 3% BSA). Alexa Fluor 647 conjugated anti-rabbit secondary antibody and an oxygen scavenging system (0.5 mg/ml glucose oxidase, 40 μg/ml catalase, 10% glucose, pH 7.4) were used for stochastic optical reconstruction microscopy (dSTORM) imaging. Before imaging, 30 mM mercaptoethylamine ([…]; Sigma) was added to obtain a final thiol concentration of 10-200 mM. All dSTORM and SIM images were obtained from Carl Zeiss ELYRA PS.1 (super-resolution microscopy), and all CLSM images were obtained from the Carl Zeiss LSM710 (confocal laser scanning microscope). […]
In the analysis using the synchronization method, the cells were stained with MKLP1 antibody for the central spindle or midbody type analyses. The rates of cells in anaphase (central spindle) and telophase (midbody) were quantified via CLSM images: FCHo1 siRNA (n=318), wt FCHo1 (n=702), FCHo1 Δ563-564 (n=756) and FCHo1 Δ531-589 (n=1952). […]

T1 sequence (P31749 whole entry): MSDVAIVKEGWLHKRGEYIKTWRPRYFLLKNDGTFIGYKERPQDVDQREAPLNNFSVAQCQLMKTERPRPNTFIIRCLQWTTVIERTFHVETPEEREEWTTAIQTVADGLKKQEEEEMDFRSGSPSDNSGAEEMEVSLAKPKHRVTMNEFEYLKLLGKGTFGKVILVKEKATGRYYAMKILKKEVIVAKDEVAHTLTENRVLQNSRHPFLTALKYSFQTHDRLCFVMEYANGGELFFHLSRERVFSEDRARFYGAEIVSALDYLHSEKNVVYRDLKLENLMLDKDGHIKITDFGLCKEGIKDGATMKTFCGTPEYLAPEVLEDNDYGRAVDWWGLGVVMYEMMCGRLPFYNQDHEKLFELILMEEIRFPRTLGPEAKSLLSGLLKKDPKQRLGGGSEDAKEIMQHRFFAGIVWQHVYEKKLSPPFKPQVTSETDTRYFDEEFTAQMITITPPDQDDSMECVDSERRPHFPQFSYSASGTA

Molecule: 560-567: peptide derived from the FCHo1 amino acid sequence, residues 560-567 (PPRRLRSR; UniProt O14526 560-567, looked up, fragment)
- inhibitory effect on cell growth (cells [1]): inhibitory effects on the cell growth

Molecule: CC(C)C[C@@H](C=O)NC(=O)[C@H](CC(C)C)NC(=O)[C@H](CC(C)C)NC(=O)OCc1ccccc1 [MG132] (Cbz-Leu-Leu-Leu-aldehyde)
- cleaved FCHo1 protein (immunoblot) (FCHo1 cleavage): completely disappeared

Molecule: PPRRLRSRKVSC [560-571, PPRRLRSRKVSC]
- absorption into a cell (cells [2]): increase in absorption into a cell in a concentration-dependent manner

Molecule: RRLRSRKVSC (FCHo1 fragment) [562-571]
- inhibitory effect on cell growth (cells [1]): inhibitory effects on the cell growth
- Akt1 binding affinity (Akt1): significantly increased

Molecule: shFCHo1: shRNA acting on mouse FCHo1, SEQ ID NO: 2 (GAGAGAACACCAGCCAGAAUCUCUUCUGGCUGGUGUUCUCUC; hairpin, further chemistry not given here)
- No. of Adenocarcinoma [3]: 0.20 ± 0.45
- No. of Adenoma [3]: 0.60 ± 0.55
- No. of hyperplasia foci [3]: 0.60 ± 0.55**^,#
- FCHo1 inhibitory effect (mouse FCHo1): most significant FCHo1 inhibitory effect

B1: Δ563-564: human FCHo1 with 563-564aa deleted (MMP-9 cleavage site), expressed in A549 cells (protein)
chain: MSYFGEHFWGEKNHGFEVLYHSVKQGPISTKELADFIRERATIEETYSKAMAKLSKLASNGTPMGTFAPLWEVFRVSSDKLALCHLELTRKLQDLIKDVLRYGEEQLKTHKKCKEEVVSTLDAVQVLSGVSQLLPKSRENYLNRCMDQERLRRESTSQKEMDKAETKTKKAAESLRRSVEKYNSARADFEQKMLDSALRFQAMEETHLRHMKALLGSYAHSVEDTHVQIGQVHEEFKQNIENVSVEMLLRKFAESKGTGREKPGPLDFEAYSAAALQEAMKRLRGAKAFRLPGLSRREREPEPPAAVDFLEPDSGTCPEVDEEGFTVRPDVTQNSTAEPSRFSSSDSDFDDEEPRKFYVHIKPAPARAPACSPEAAAAQLRATAGSLILPPGPGGTMKRHSSRDAAGKPQRPRSAPRTSSCAERLQSEEQVSKNLFGPPLESAFDHEDFTGSSSLGFTSSPSPFSSSSPENVEDSGLDSPSHAAPGPSPDSWVPRPGTPQSPPSCRAPPPEARGIRAPPLPDSPQPLASSPGPWGLEALAGGDLMPAPADPTAREGLAAPPRRSRKVSCPLTRSNGDLSRSLSPSPLGSSAASTALERPSFLSQTGHGVSRGPSPVVLGSQDALPIATAFTEYVHAYFRGHSPSCLARVTGELTMTFPAGIVRVFSGTPPPPVLSFRLVHTTAIEHFQPNADLLFSDPSQSDPETKDFWLNMAALTEALQRQAEQNPTASYYNVVLLRYQFSRPGPQSVPLQLSAHWQCGATLTQVSVEYGYRPGATAVPTPLTNVQILLPVGEPVTNVRLQPAATWNLEEKRLTWRLPDVSEAGGSGRLSASWEPLSGPSTPSPVAAQFTSEGTTLSGVDLELVGSGYRMSLVKRRFATGMYLVSC
modifications: Fcho1 delta563-564
notes: human FCHo1 with 563-564aa deleted (MMP-9 cleavage site), expressed in A549 cells
- midbody formation (A549 cells): inhibited the midbody formation
